In article PMC5462828 (Scientific Reports, 2017):

T1: RXFP1 stably expressed in HEK293 cells (HEK-RXFP1) (human, UniProt Q9HBX9 1-757)
T1 sequence (looked up): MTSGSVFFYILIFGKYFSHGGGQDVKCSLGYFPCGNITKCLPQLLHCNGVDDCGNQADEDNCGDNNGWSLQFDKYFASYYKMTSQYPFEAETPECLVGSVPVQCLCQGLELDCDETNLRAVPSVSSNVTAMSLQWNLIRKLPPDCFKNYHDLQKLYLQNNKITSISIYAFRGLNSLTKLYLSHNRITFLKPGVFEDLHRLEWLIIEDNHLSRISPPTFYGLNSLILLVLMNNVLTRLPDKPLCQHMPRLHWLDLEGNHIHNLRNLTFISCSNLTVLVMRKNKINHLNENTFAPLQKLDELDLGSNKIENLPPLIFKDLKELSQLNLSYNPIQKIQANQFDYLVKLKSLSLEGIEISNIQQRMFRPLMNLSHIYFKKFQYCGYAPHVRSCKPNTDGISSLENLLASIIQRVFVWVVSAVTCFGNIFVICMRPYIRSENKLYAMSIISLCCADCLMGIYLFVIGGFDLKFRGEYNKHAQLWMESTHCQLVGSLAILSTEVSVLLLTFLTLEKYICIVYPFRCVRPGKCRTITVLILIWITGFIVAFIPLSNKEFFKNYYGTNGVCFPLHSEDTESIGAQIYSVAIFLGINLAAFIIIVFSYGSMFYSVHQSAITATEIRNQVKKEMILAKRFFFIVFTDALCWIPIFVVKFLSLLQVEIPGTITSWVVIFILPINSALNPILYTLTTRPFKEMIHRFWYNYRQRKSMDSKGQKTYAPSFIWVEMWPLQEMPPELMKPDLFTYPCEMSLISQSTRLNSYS


Columns and labels:
[1] = target: RXFP1 stably expressed in HEK293 cells (HEK-RXFP1) (human) (UniProt Q9HBX9); assay: radioligand binding; kinetics on HEK-RXFP1 cells in 96-well plates, with ML290 (1 μM): association with 100 pM 125I-H2 relaxin over time; dissociation after 90 min equilibration, started with 200 nM unlabelled H2 relaxin
[2] = target: RXFP1 stably expressed in HEK293 cells (HEK-RXFP1) (human) (UniProt Q9HBX9); assay: radioligand binding; kinetics on HEK-RXFP1 cells in 96-well plates, without ML290: association with 100 pM 125I-H2 relaxin over time; dissociation after 90 min equilibration, started with 200 nM unlabelled H2 relaxin
[3] = tested on: ML290-mediated cAMP accumulation; assay: Effect of signalling pathway inhibitors on ML290-mediated cAMP accumulation in human primary vascular cells; type: cell-based; conditions: NF449 10 μM, NF023 10 μM, mSIRK 5 μM, gallein 50 μM, Wortmannin 100 nM, 30 min
Method: (§1) cAMP and cGMP accumulation was determined as previously described, [16]. Briefly, HEK293 cells were plated in 96-well plates (5 × 10^4 cells/well) and human primary cells were plated into 24-well plates (1 × 10^5 cells/well) and grown overnight to achieve a confluent monolayer. Prior to stimulation, HEK cells were serum-starved in DMEM containing 0.5% FBS v/v and primary cells were serum-starved in M199 medium for 4–6 hours. […] Levels of cAMP and cGMP were detected according to the manufacturer’s instructions (Perkin-Elmer, Australia).

[4] = tested on: ML290-mediated cGMP accumulation; assay: Effect of signalling pathway inhibitors on ML290-mediated cGMP accumulation in human primary vascular cells; type: cell-based; conditions: NF449 10 μM, NF023 10 μM, mSIRK 5 μM, gallein 50 μM, Wortmannin 100 nM, 30 min
Method: as §1

[5] = tested on: p-Smad2; assay: Smad2 phosphorylation assay in human cardiac fibroblasts; type: cell-based; conditions: HCFs; TGF-β1 2 ng/ml alone; 72 hours
Method: (§2) Cells were serum-starved in M199 medium for 24 hours prior sample collection. Cells were used between passages 1–4, while all experiments were performed four separate times in duplicate. Levels of p-Smad2 and p-Smad3 were detected using Sure-fire kits according to the manufacturer’s instructions (Perkin-Elmer, Australia).

[6] = tested on: p-Smad3; assay: Smad3 phosphorylation assay in human cardiac fibroblasts; type: cell-based; conditions: HCFs; TGF-β1 2 ng/ml alone; 72 hours
Method: as §2

[7] = target: T1, RXFP1 stably expressed in HEK293 cells …; assay: cell-based or functional assay
[8] = target: T1, RXFP1 stably expressed in HEK293 cells …; assay: radioligand binding; competition on HEK-RXFP1 cells: 100 pM 125I-H2 relaxin against increasing unlabelled H2 relaxin, in the presence of ML290 (1 μM), 90 min, room temperature; conditions: one partner purified
[9] = target: T1, RXFP1 stably expressed in HEK293 cells …; assay: radioligand binding; competition on HEK-RXFP1 cells: 100 pM 125I-H2 relaxin against increasing unlabelled H2 relaxin, vehicle (0.1% DMSO), 90 min, room temperature; conditions: one partner purified

| Molecule | ML290-mediated cAMP accumulation after inhibitor ([3]; HCAECs) | ML290-mediated cAMP accumulation after inhibitor ([3]; HUASMCs, L9A 5 μM) | ML290-mediated cAMP accumulation after inhibitor ([3]; HUVECs) | ML290-mediated cAMP accumulation after inhibitor ([3]; HUVSMCs, L9A 5 μM) | ML290-mediated cGMP accumulation after inhibitor ([4]; HCAECs) | ML290-mediated cGMP accumulation after inhibitor ([4]; HUASMCs, L9A 5 μM) | ML290-mediated cGMP accumulation after inhibitor ([4]; HUVECs) | ML290-mediated cGMP accumulation after inhibitor ([4]; HUVSMCs, L9A 5 μM) | further results |
| --- | --- | --- | --- | --- | --- | --- | --- | --- | --- |
| 125I-H2 relaxin (ligand) |  |  |  |  |  |  |  |  | koff [1]: 0.000667 s⁻¹; kon [1]: 4.67e+06 M⁻¹ s⁻¹; koff [2]: 0.000833 s⁻¹; kon [2]: 3.5e+06 M⁻¹ s⁻¹ |
| O=C(Nc1cccc(C(=O)Nc2ccc(S(=O)(=O)O)c3cc(S(=O)(=O)O)cc(S(=O)(=O)O)c23)c1)Nc1cccc(C(=O)Nc2ccc(S(=O)(=O)O)c3cc(S(=O)(=O)O)cc(S(=O)(=O)O)c23)c1 [NF023] | unaffected | no effect | unaffected | no effect | not significantly affected | no effect | not significantly affected | no effect |  |
| O=C(Nc1cc(C(=O)Nc2ccc(S(=O)(=O)O)cc2S(=O)(=O)O)cc(C(=O)Nc2ccc(S(=O)(=O)O)cc2S(=O)(=O)O)c1)Nc1cc(C(=O)Nc2ccc(S(=O)(=O)O)cc2S(=O)(=O)O)cc(C(=O)Nc2ccc(S(=O)(=O)O)cc2S(=O)(=O)O)c1 [NF449] | 0.8 ± 3.9 % response to 50 μM forskolin | 6.0 ± 7.3 % response to 50 μM forskolin | 0.8 ± 5.7 % response to 50 μM forskolin | 4.7 ± 2.5 % response to 50 μM forskolin | 11.9 ± 5.3 % of the response to DEA | 24.3 ± 5.7% | 22.3 ± 3.0 % of the response to DEA | 18.8 ± 3.7% |  |
| COC[C@H]1OC(=O)c2coc3c2[C@@]1(C)C1=C(C3=O)[C@@H]2CCC(=O)[C@@]2(C)C[C@H]1OC(C)=O [Wortmannin] | unaffected | 7.2 ± 2.2 % response to 50 μM forskolin | unaffected | 6.4 ± 2.2 % response to 50 μM forskolin | not significantly affected | 21.8 ± 3.4% | not significantly affected | 14.3 ± 3.3% |  |
| O=C1OC2(c3ccccc31)c1ccc(O)c(O)c1Oc1c2ccc(O)c1O [gallein] | unaffected | 5.2 ± 1.4 % response to 50 μM forskolin | unaffected | 3.2 ± 3.4 % response to 50 μM forskolin | not significantly affected | 15.6 ± 2.6% | not significantly affected | 14.3 ± 3.8% |  |
| TGF-β1: pro-fibrotic cytokine used to induce Smad2 and Smad3 phosphorylation |  |  |  |  |  |  |  |  | increase in p-Smad2 compared to vehicle-treated samples [5]: 2.21 ± 0.17 fold; increase in p-Smad3 compared to vehicle-treated samples [6]: 1.41 ± 0.07 fold |
| Human gene 2 relaxin (H2 relaxin) (ligand) chain 1: QLYSALANKCCHVGCTKRSLARFC chain 2: DSWMEEVIKLCGRELVRAQIAICGMSTWS |  |  |  |  |  |  |  |  | cAMP accumulation in HCAEC (endogenous RXFP1), pEC50 (efficacy in brackets as % of forskolin 50 μM) [7]: 8.9; cGMP accumulation in HCAEC (endogenous RXFP1), pEC50 (efficacy in brackets as % of DEA) [7]: 9.2; cGMP accumulation in HCF (endogenous RXFP1), 40 min, pEC50 (efficacy in brackets as % of DEA) [7]: 9.6; p-ERK1/2 in HEK-RXFP1 cells, 5 min, pEC50 (efficacy in brackets as % of 10% FBS) [7]: 9.5; p-p38MAPK in HEK-RXFP1 cells, 15 min, pEC50 (efficacy in brackets as % of sorbitol) [7]: 8.9; pKi [8]: 9.7; pKi [9]: 9.5 |
